Source: ChEMBL document CHEMBL1629455, “Discovery of a novel class of biphenyl pyrazole sodium channel blockers for treatment of neuropathic pain” (Bioorg Med Chem Lett, 2010)

Key:
Mus musculus [1] = experiment: Neurotoxicity in conscious mouse assessed as effect on behavior at 100 mg/kg after 2 hrs; type: toxicity, organism-based; set-up: dose 100 mg/kg; details: in vivo
Mus musculus [2] = experiment: Neurotoxicity in conscious mouse assessed as effect on CNS function at 100 mg/kg after 5 hrs; type: toxicity, organism-based, Central nervous system; set-up: dose 100 mg/kg; details: in vivo
Mus musculus [3] = experiment: Neurotoxicity in conscious mouse assessed as effect on CNS function at 100 mg/kg after 2 hrs; type: toxicity, organism-based, Central nervous system; set-up: dose 100 mg/kg; details: in vivo
Plasma [4] = experiment: Plasma concentration in dog at 3 mg/kg, iv; type: ADME, organism-based, Canis lupus familiaris; set-up: dose 3 mg/kg, route intravenous; details: in vivo
Plasma [5] = experiment: Plasma concentration in dog at 1 mg/kg, iv; type: ADME, organism-based, Canis lupus familiaris; set-up: dose 1 mg/kg, route intravenous; details: in vivo
Canis familiaris [6] = experiment: Cardiotoxicity in anesthetized dog assessed as increase in PR interval at 10 mg/kg, iv; type: toxicity, organism-based, Canis lupus familiaris; set-up: dose 10 mg/kg, route intravenous; details: in vivo
Canis familiaris [7] = experiment: Cardiotoxicity in anesthetized dog assessed as effect on QTc interval at 3 mg/kg, iv; type: toxicity, organism-based, Canis lupus familiaris; set-up: dose 3 mg/kg, route intravenous; details: in vivo
Canis familiaris [8] = experiment: Cardiotoxicity in anesthetized dog assessed as effect on QTc interval at 1 mg/kg, iv; type: toxicity, organism-based, Canis lupus familiaris; set-up: dose 1 mg/kg, route intravenous; details: in vivo
Canis familiaris [9] = experiment: Cardiotoxicity in anesthetized dog assessed as effect on QRS interval at 3 mg/kg, iv; type: toxicity, organism-based, Canis lupus familiaris; set-up: dose 3 mg/kg, route intravenous; details: in vivo
Canis familiaris [10] = experiment: Cardiotoxicity in anesthetized dog assessed as effect on QRS interval at 1 mg/kg, iv; type: toxicity, organism-based, Canis lupus familiaris; set-up: dose 1 mg/kg, route intravenous; details: in vivo
Canis familiaris [11] = experiment: Cardiotoxicity in anesthetized dog assessed as effect on heart rate at 10 mg/kg, iv; type: toxicity, organism-based, Canis lupus familiaris; set-up: dose 10 mg/kg, route intravenous; details: in vivo
Canis familiaris [12] = experiment: Cardiotoxicity in anesthetized dog assessed as effect on heart rate at 1 mg/kg, iv; type: toxicity, organism-based, Canis lupus familiaris; set-up: dose 1 mg/kg, route intravenous; details: in vivo
Canis familiaris [13] = experiment: Cardiotoxicity in anesthetized dog assessed as effect on mean arterial pressure at 10 mg/kg, iv; type: toxicity, organism-based, Canis lupus familiaris, Artery; set-up: dose 10 mg/kg, route intravenous; details: in vivo
Canis familiaris [14] = experiment: Cardiotoxicity in anesthetized dog assessed as effect on mean arterial pressure at 3 mg/kg, iv; type: toxicity, organism-based, Canis lupus familiaris, Artery; set-up: dose 3 mg/kg, route intravenous; details: in vivo
Canis familiaris [15] = experiment: Cardiotoxicity in anesthetized dog assessed as effect on mean arterial pressure at 1 mg/kg, iv; type: toxicity, organism-based, Canis lupus familiaris, Artery; set-up: dose 1 mg/kg, route intravenous; details: in vivo
[16] = Plasma concentration in rat 30 to 100 mg/kg, po after 3.5 hrs; type: ADME, organism-based; set-up: dose 30-100 mg/kg, route oral
Rattus norvegicus [17] = experiment: Neurotoxicity in rat assessed as effect on motor coordination at 30 mg/kg, po by rotarod test (reference value: 18%); type: toxicity, organism-based; set-up: dose 30 mg/kg, route oral; details: in vivo
Rattus norvegicus [18] = experiment: Antiallodynic activity in rat […] model assessed as reversal of complete Freund's adjuvant-induced allodynia at 30 mg/kg, po after 4 hrs; type: functional
Rattus norvegicus [19] = experiment: Antiallodynic activity in rat spinal nerve ligation model of neuropathic pain assessed as reversal of allodynia at 3 mg/kg, po after 4 hrs; type: functional
Rattus norvegicus [20] = experiment: Antiallodynic activity in rat […] model assessed as reversal of complete Freund's adjuvant-induced allodynia at 30 mg/kg, po after 2 hrs; type: functional
[21] = AUC in dog at 60 mg/kg, po; type: ADME, organism-based, Canis lupus familiaris; set-up: dose 60 mg/kg, route oral; details: plasma
[22] = AUC in dog at 20 mg/kg, po; type: ADME, organism-based, Canis lupus familiaris; set-up: dose 20 mg/kg, route oral; details: plasma
[23] = Cmax in dog at 20 mg/kg, po; type: ADME, organism-based, Canis lupus familiaris; set-up: dose 20 mg/kg, route oral; details: in vivo
[24] = AUC in dog at 2 mg/kg, po; type: ADME, organism-based, Canis lupus familiaris; set-up: dose 2 mg/kg, route oral; details: plasma
Canis familiaris [25] = experiment: Clearance in dog plasma at 0.5 mg/kg, iv and 2 mg/kg, po; type: ADME, organism-based, Canis lupus familiaris; details: in vivo
[26] = Cmax in dog at 0.5 mg/kg, iv and 2 mg/kg, po; type: ADME, organism-based, Canis lupus familiaris; details: in vivo
[27] = Half life in dog at 0.5 mg/kg, iv and 2 mg/kg, po; type: ADME, organism-based, Canis lupus familiaris; details: in vivo
[28] = Bioavailability in rat at 1 mg/kg, iv and 3 mg/kg, po; type: ADME, organism-based; details: in vivo
[29] = AUC in rat at 3 mg/kg, po; type: ADME, organism-based; set-up: dose 3 mg/kg, route oral; details: plasma
[30] = Cmax in rat at 1 mg/kg, iv and 3 mg/kg, po; type: ADME, organism-based; details: in vivo
[31] = Half life in rat at 1 mg/kg, iv and 3 mg/kg, po; type: ADME, organism-based; details: in vivo
[32] = Metabolic stability in dog liver microsomes assessed as compound remaining after 60 mins in presence of 10 uM substrate; type: ADME, Canis lupus familiaris, Microsome; details: read-out: Stability
[33] = Metabolic stability in rat liver microsomes assessed as compound remaining after 60 mins in presence of 10 uM substrate; type: ADME, Microsome; details: read-out: Stability
[34] = Metabolic stability in human liver microsomes assessed as compound remaining after 60 mins in presence of 10 uM substrate; type: ADME, Microsome; details: read-out: Stability
[35] = target: T1, Nuclear receptor subfamily 1 group I member 2 (Homo sapiens, UniProt O75469); experiment: Induction of PXR
T1 sequence (O75469 whole entry): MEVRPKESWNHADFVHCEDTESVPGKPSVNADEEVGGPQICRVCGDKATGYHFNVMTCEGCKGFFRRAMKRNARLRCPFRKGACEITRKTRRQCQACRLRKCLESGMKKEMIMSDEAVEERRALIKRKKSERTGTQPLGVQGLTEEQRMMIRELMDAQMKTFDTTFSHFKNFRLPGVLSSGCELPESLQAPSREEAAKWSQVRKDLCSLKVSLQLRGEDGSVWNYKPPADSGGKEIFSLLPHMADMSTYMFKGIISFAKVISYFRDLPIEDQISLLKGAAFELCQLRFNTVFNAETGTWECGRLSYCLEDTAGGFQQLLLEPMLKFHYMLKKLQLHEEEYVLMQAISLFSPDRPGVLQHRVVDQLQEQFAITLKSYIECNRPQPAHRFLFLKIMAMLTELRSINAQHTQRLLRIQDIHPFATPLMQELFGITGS

Cytochrome P450 2D6 = Cytochrome P450 2D6 (Homo sapiens, UniProt P10635); experiment: Inhibition of CYP2D6; type: ADME
Chain of Cytochrome P450 2D6 (P10635 whole entry): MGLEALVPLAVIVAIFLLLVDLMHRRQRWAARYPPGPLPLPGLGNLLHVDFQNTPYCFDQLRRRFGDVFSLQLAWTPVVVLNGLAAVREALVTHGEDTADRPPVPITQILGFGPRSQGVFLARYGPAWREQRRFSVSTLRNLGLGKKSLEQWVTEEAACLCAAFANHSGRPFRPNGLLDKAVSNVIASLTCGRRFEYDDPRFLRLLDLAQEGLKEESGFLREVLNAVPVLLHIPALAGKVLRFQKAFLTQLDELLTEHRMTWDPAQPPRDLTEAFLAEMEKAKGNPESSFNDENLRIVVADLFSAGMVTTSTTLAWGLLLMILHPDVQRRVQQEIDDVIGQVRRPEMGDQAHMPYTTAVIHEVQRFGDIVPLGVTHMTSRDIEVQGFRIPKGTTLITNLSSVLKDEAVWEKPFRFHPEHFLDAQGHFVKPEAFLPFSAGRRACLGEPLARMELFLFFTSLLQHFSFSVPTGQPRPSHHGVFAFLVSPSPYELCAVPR

Cytochrome P450 2C9 = Cytochrome P450 2C9 (Homo sapiens, UniProt P11712); experiment: Inhibition of CYP2C9; type: ADME
Chain of Cytochrome P450 2C9 (P11712 whole entry): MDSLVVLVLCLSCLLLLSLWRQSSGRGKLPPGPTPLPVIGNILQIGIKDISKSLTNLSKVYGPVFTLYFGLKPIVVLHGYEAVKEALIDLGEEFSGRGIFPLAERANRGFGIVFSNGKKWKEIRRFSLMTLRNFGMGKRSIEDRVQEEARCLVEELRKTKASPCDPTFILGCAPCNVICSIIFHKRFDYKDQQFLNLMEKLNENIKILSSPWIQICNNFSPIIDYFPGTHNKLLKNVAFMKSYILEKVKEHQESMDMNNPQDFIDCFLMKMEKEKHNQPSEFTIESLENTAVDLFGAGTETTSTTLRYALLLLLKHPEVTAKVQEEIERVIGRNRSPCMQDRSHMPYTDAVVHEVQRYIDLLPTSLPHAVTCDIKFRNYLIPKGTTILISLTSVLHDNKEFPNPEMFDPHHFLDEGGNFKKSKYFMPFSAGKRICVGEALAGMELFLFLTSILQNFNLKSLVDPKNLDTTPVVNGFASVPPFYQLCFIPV

[36] = target: Sodium channel protein type 5 subunit alpha (Homo sapiens, UniProt Q14524); experiment: Inhibition of Nav1.5 by VIPR assay
[37] = target: Cav1.2 (L-type calcium channel subunit alpha-1C) (Homo sapiens, UniProt Q13936); experiment: Inhibition of DLZ binding to Cav1.2 at 10 uM; details: probe DLZ
hERG (KCNH2) [38] = target: T2, hERG (KCNH2) (Homo sapiens, UniProt Q12809); experiment: Inhibition of human ERG at 30 uM by electrophysiology assay
T2 sequence (Q12809 whole entry): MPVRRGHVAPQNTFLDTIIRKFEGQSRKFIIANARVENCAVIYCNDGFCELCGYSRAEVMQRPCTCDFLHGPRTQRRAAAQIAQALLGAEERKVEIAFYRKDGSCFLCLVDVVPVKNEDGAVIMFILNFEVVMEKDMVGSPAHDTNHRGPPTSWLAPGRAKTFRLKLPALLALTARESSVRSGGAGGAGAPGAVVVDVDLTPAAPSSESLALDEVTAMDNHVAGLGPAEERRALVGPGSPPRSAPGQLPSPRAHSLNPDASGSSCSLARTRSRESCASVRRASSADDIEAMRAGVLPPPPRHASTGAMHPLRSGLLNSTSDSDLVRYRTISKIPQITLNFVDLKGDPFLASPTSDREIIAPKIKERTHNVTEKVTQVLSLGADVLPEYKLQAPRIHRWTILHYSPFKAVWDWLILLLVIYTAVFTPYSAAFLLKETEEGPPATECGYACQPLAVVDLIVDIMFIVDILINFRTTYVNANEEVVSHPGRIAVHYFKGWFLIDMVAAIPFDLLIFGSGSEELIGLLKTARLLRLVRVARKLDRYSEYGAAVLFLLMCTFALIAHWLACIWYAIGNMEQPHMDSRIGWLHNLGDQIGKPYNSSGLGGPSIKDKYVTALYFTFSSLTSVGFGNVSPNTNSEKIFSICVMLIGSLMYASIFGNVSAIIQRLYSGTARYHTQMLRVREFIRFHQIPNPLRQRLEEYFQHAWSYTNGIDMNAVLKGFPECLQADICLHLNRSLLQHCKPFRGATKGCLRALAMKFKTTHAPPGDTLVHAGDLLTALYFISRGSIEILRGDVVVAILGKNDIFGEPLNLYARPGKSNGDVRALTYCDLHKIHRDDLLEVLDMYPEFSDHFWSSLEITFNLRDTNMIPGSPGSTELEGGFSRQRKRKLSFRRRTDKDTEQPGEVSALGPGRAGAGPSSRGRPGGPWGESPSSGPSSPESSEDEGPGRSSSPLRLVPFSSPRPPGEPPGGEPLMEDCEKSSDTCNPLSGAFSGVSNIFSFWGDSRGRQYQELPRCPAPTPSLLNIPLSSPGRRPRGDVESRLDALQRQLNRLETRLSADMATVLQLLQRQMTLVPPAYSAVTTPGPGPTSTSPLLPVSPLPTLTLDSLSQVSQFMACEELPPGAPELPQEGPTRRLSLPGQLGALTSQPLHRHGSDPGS

Rattus norvegicus [39] = experiment: Antiallodynic activity in rat spinal nerve ligation model of neuropathic pain assessed as reversal of allodynia at 10 mg/kg, po after 4 hrs; type: functional; details: Rattus norvegicus, Spinal nerve, 4 h
hERG (KCNH2) [40] = target: T2, hERG (KCNH2); experiment: Inhibition of MK-0499 binding to human ERG at 10 uM; details: probe MK-0499
Mus musculus [41] = experiment: Neurotoxicity in conscious mouse assessed as effect on motor activity at 100 mg/kg after 5 hrs; type: toxicity, organism-based; set-up: dose 100 mg/kg; details: in vivo
Mus musculus [42] = experiment: Neurotoxicity in conscious mouse assessed as effect on motor activity at 100 mg/kg after 24 hrs; type: toxicity, organism-based; set-up: dose 100 mg/kg; details: in vivo
Mus musculus [43] = experiment: Neurotoxicity in conscious mouse assessed as effect on body temperature at 100 mg/kg after 2 hrs; type: toxicity, organism-based; set-up: dose 100 mg/kg; details: in vivo
Mus musculus [44] = experiment: Neurotoxicity in conscious mouse assessed as effect on body temperature at 100 mg/kg after 5 hrs; type: toxicity, organism-based; set-up: dose 100 mg/kg; details: in vivo
Mus musculus [45] = experiment: Neurotoxicity in conscious mouse assessed as effect on body temperature at 100 mg/kg after 24 hrs; type: toxicity, organism-based; set-up: dose 100 mg/kg; details: in vivo
[46] = target: Sodium channel protein type 9 subunit alpha (Homo sapiens, UniProt Q15858); experiment: Inhibition of human Nav1.7 by VIPR assay
Chain of Sodium channel protein type 9 subunit alpha (Q15858 whole entry): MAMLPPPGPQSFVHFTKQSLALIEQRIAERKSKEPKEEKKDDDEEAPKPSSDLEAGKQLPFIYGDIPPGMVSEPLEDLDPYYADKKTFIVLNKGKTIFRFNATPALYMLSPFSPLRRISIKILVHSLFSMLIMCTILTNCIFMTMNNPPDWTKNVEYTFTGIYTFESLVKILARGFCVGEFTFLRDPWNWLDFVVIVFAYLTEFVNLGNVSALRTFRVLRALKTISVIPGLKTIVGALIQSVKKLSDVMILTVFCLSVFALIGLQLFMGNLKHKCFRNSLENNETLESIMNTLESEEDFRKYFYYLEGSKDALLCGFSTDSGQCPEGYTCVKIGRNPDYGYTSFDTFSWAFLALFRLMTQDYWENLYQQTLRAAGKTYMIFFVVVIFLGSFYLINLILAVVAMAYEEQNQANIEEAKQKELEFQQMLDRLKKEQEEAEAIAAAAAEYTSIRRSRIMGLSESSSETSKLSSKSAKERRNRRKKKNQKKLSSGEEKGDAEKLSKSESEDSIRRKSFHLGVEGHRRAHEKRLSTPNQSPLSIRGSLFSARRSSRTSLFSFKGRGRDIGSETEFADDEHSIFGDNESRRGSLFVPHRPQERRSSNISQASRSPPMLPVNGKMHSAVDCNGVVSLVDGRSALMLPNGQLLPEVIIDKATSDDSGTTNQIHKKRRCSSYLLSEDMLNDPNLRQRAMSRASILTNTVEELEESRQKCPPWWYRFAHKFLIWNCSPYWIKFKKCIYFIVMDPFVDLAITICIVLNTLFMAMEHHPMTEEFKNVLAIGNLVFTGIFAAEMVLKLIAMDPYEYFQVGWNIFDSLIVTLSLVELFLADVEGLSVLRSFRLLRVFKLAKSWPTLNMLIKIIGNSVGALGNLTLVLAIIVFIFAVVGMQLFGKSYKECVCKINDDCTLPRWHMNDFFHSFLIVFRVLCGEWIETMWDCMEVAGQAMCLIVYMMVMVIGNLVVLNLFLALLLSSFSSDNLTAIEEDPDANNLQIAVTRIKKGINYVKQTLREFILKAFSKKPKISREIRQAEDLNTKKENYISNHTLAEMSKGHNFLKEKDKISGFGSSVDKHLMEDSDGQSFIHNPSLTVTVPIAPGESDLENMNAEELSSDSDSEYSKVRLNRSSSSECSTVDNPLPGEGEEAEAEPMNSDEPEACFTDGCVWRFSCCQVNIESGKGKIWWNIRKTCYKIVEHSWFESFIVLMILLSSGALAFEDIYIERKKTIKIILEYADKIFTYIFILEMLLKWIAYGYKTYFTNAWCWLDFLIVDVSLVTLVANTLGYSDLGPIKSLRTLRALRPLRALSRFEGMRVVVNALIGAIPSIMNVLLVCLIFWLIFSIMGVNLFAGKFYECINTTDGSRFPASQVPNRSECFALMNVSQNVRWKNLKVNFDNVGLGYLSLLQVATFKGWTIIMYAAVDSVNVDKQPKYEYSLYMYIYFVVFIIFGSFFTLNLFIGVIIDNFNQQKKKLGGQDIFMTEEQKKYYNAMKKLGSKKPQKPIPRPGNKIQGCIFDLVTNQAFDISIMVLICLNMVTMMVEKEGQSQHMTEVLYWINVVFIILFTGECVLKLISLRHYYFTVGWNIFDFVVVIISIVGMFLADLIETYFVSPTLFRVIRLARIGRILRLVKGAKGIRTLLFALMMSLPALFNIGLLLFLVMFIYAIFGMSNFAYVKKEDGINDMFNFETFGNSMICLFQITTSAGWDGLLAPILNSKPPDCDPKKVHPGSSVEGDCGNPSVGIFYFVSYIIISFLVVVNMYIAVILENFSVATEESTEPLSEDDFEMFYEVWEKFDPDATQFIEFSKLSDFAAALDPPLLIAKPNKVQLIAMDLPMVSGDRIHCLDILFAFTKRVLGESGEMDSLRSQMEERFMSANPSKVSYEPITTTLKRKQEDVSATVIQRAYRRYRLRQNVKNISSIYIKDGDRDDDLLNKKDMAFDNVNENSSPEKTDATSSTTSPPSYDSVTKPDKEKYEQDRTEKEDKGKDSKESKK

## NC(=O)c1cc(C(N)=O)n(-c2cccc(-c3cc(C(F)(F)F)ccc3C(F)(F)F)c2)n1
Mus musculus [1]
  Activity: Non-toxic
Mus musculus [2]
  Activity: Non-toxic
Mus musculus [3]
  Activity: Non-toxic
Plasma [4]
  concentration: 16.2 µM
Plasma [5]
  concentration: 7.3 µM
Canis familiaris [6]
  Activity: 6%
Canis familiaris [7]
  Activity: Non-toxic
Canis familiaris [8]
  Activity: Non-toxic
Canis familiaris [9]
  Activity: Non-toxic
Canis familiaris [10]
  Activity: Non-toxic
Canis familiaris [11]
  Activity: Non-toxic
Canis familiaris [12]
  Activity: Non-toxic
Canis familiaris [13]
  Activity: Non-toxic
Canis familiaris [14]
  Activity: Non-toxic
Canis familiaris [15]
  Activity: Non-toxic
[16]
  concentration at 3.5 h: 31.6 µM
Rattus norvegicus [17]
  Activity: -2%
Rattus norvegicus [18]
  inhibition in vivo at 30 mg/kg: 53%
Rattus norvegicus [19]
  inhibition in vivo at 3 mg/kg: 30%
Rattus norvegicus [20]
  inhibition in vivo at 30 mg/kg: 46%
[21]
  AUC: 650 µM·h
[22]
  AUC: 372 µM·h
[23]
  Cmax: 20.3 µM
[24]
  AUC: 50 µM·h
Canis familiaris [25]
  clearance: 0.5 mL/min/kg
[26]
  Cmax: 2.92 µM
[27]
  half-life: 12 h
[28]
  bioavailability: 60%
[29]
  AUC: 5.6 µM·h
[30]
  Cmax: 2.64 µM
[31]
  half-life: 3.1 h
[32]
  remaining at 1 h, 10 uM: > 99%
[33]
  remaining at 1 h, 10 uM: > 99%
[34]
  remaining at 1 h, 10 uM: > 99%
[35]
  IC50: > 25 µM
Cytochrome P450 2D6
  IC50: > 100 µM
Cytochrome P450 2C9
  IC50: 20.3 µM
[36]
  IC50: 1.32 µM
[37]
  inhibition at 10 µM: 0%
hERG (KCNH2) [38]
  inhibition at 30 µM: 15%
Rattus norvegicus [39]
  inhibition in vivo at 10 mg/kg: 34%
hERG (KCNH2) [40]
  inhibition at 10 µM: 17%
Mus musculus [41]
  Activity: Non-toxic
Mus musculus [42]
  Activity: Non-toxic
Mus musculus [43]
  Activity: Non-toxic
Mus musculus [44]
  Activity: Non-toxic
Mus musculus [45]
  Activity: Non-toxic
[46]
  IC50: 0.81 µM
